Where two headings read alike, the source gives them in different places.
Key:
[1] = logP determination by HPLC on reversed-phase column (C18), EEC Directive 79/831 Annex V.A8; type: physicochemical; conditions: for chromatographic logP: reversed-phase HPLC column (C18)
[2] = system: Phaedon cochleariae; experiment: Phaedon cochleariae spray test; type: in vivo; conditions: in Brassica rapa, foliar, 168 h
Description: Phaedon cochleariae—Spray Test
(§1) To produce a suitable preparation of active compound, 1 part by weight of active compound is mixed with the stated amount of solvents and is diluted with water, containing an emulsifier concentration of 1000 ppm, to the desired concentration. Further test concentrations are prepared by dilution with emulsifier containing water.
Chinese cabbage (Brassica pekinensis) leaf disks are sprayed with a preparation of the active ingredient of the desired concentration. Once dry, the leaf disks are infested with mustard beetle larvae (Phaedon cochleariae).
After 7 days mortality in % is determined. 100% means all beetle larvae have been killed and 0% means none of the beetle larvae have been killed.

[3] = system: Spodoptera frugiperda; experiment: Spodoptera frugiperda spray test; type: in vivo; conditions: for mortality: 100 g/ha, maize leaf sections, larvae, after 7 days
Description: Spodoptera Frugiperda—Spray Test
as §1
Maize (Zea mays) leaf sections are sprayed with a preparation of the active ingredient of the desired concentration. Once dry, the leaf sections are infested with fall armyworm larvae (Spodoptera frugiperda).
After 7 days mortality in % is determined. 100% means all caterpillars have been killed and 0% means none of the caterpillars have been killed.

[4] = system: Tetranychus urticae; experiment: Tetranychus urticae spray test OP-resistant; type: in vivo; conditions: in Phaseolus vulgaris, foliar, 144 h
Description: Tetranychus urticae—Spray Test OP-Resistant
as §1
French bean (Phaseolus vulgaris) leaf disks infected with all instars of the two spotted spidermite (Tetranychus urticae), are sprayed with a preparation of the active ingredient of the desired concentration.
After 6 days mortality in % is determined. 100% means all spider mites have been killed and 0% means none of the spider mites have been killed.

[5] = system: Boophilus microplus; experiment: Boophilus microplus injection test (BOOPMI Inj); type: in vivo; conditions: 20 μg/animal, injection into adult engorged female ticks, egg deposition after 7 days
Description: Boophilus Microplus—Injectiontest (BOOPMI Inj)
(§2) Solvent: Dimethyl Sulfoxide
To produce a suitable preparation of active compound, 10 mg of active compound are dissolved in 0.5 ml solvent, and the concentrate is diluted with solvent to the desired concentration.
Five adult engorged female ticks (Boophilus microplus) are injected with 1 μl compound solution into the abdomen. The ticks are transferred into replica plates and incubated in a climate chamber.
After 7 days egg deposition of fertile eggs is monitored. Eggs where fertility is not visible are stored in a climate chamber till hatching after about 42 days. An efficacy of 100% means all eggs are infertile; 0% means all eggs are fertile.

[6] = system: Ctenocephalides felis; experiment: Ctenocephalides felis oral test (CTECFE); type: in vivo; conditions: 100 ppm in cattle blood, adult cat fleas, after 2 days
Description: Ctenocephalides felis—Oral Test (CTECFE)
as §2
To produce a suitable preparation of active compound, 10 mg of active compound are dissolved in 0.5 ml solvent, and the concentrate is diluted with cattle blood to the desired concentration.
Approximately 20 adult unfed cat fleas (Cienocephalides felis) are placed in flea chambers. The blood chamber, sealed with parafilm on the bottom, are filled with cattle blood supplied with compound solution and placed on the gauze covered top of the flea chamber, so that the fleas are able to suck the blood. The blood chamber is heated to 37° C. whereas the flea chamber is kept at room temperature.
After 2 days mortality in % is determined. 100% means all the fleas have been killed; 0% means none of the fleas have been killed.

[7] = system: Lucilia cuprina; experiment: Lucilia cuprina test (LUCICU); type: in vivo; conditions: 100 ppm, 1st instar larvae, after 2 days
Description: Lucilia cunrina—Test (LUCICU)
as §2
10 mg active compound are dissolved in 0.5 ml Dimethylsulfoxid. Serial dilutions are made to obtain the desired rates.
Approximately 20 1st instar larvae of the Australian sheep blowfly (Lucilia cuprina) are transferred into a test tube containing minced horse meat and compound solution of the desired concentration.
After 2 days mortality in % is determined. 100% means all the larvae have been killed; 0% means none of the larvae have been killed.

[8] = system: Myzus persicae; experiment: Myzus persicae spray test; type: in vivo; conditions: 100 g/ha, Chinese cabbage leaf disks, all instars, after 6 days
Description: Myzus Persicae—Spray Test
as §1
Chinese cabbage (Brassica pekinensis) leaf disks infected with all instars of the green peach aphid (Myzus persicae), are sprayed with a preparation of the active ingredient of the desired concentration.
After 6 days mortality in % is determined. 100% means all aphids have been killed and 0% means none of the aphids have been killed.

[9] = intermediates, values in text, same HPLC method
[10] = intermediates, values in text, same HPLC method, read-out: log P (HPLC-MS)
[11] = HPLC, C18, acetonitrile (0.1% formic acid)/water (0.09% formic acid) gradient, read-out: logP
[12] = HPLC, C18, acetonitrile (0.1% formic acid)/water (0.09% formic acid) gradient

chromatographic logP [1, 10] | Compound | logP [1, 12] | also measured
– | 4′-(difluoromethyl)-5′-(1-fluorocyclopropyl)-4-iodo-2′-methyl-2′H-1,3′-bipyrazole [Example 26] | – | log P (HPLC-MS) [1, 9]: 3.37
– | 5′-(1-fluorocyclopropyl)-4-iodo-2′-methyl-2′H-1,3′-bipyrazole-4′-carbaldehyde [Example 25] | – | log P (HPLC-MS) [1, 9]: 2.86
1.31 | N#CC1(NC(=O)c2cc(-c3cn[nH]c3)ccc2Cl)CC1 [Example 14, 2-chloro-N-(1-cyanocyclopropyl)-5-(1H-pyrazol-4-yl)benzamide] | – | –
1.16 | CN(C)/C=C/C(=O)C1(F)CC1 [Example 16, (2E)-3-(dimethylamino)-1-(1-fluorocyclopropyl)prop-2-en-1-one] | – | –
1.71 | Cn1nc(C2(F)CC2)c(C=O)c1Cl [Example 24, 5-chloro-3-(1-fluorocyclopropyl)-1-methyl-1H-pyrazole-4-carbaldehyde] | – | –
3.63 | COC(=O)c1cc(-c2cnn(-c3c(C(F)F)c(C4(F)CC4)nn3C)c2)ccc1Cl [Example 28, methyl 2-chloro-5-[4′-(difluoromethyl)-5′-(1-fluorocyclopropyl)-2′-methyl-2′H-1,3′-bipyrazol-4-yl]benzoate] | – | –
2.71 | Cn1nc(C2(F)CC2)c(C(F)F)c1-n1cc(-c2ccc(Cl)c(C(=O)O)c2)cn1 [Example 29, 2-chloro-5-[4′-(difluoromethyl)-5′-(1-fluorocyclopropyl)-2′-methyl-2′H-1,3′-bipyrazol-4-yl]benzoic acid] | – | –
0.38 | CN1N=C(C2(F)CC2)CC1=O [Example 32, 5-(1-fluorocyclopropyl)-2-methyl-2,4-dihydro-3H-pyrazol-3-one] | – | –
– | Cn1nc(C2(F)CC2)c(C(F)(F)F)c1-n1cc(-c2ccc(Cl)c(C(=O)NC3(C#N)CC3)c2)cn1 [Example I-1, 2-chloro-N-(1-cyanocyclopropyl)-5-[5′-(1-fluorocyclopropyl)-2′-methyl-4′-(trifluoromethyl)-2′H-1,3′-bipyrazol-4-yl]benzamide] | – | chromatographic logP [1, 11]: 3.09
– | Cn1nc(C2(F)CC2)c(C(F)F)c1-n1cc(-c2ccc(Cl)c(C(=O)NC3(C#N)CC3)c2)cn1 [Example I-2, 2-chloro-N-(1-cyanocyclopropyl)-5-[4′-(difluoromethyl)-5′-(1-fluorocyclopropyl)-2′-methyl-2′H-1,3′-bipyrazol-4-yl]benzamide] | – | chromatographic logP [1, 11]: 2.78; mortality at 100 g/ha [2]: 100%; mortality at 100 g/ha ([3]; Spodoptera frugiperda, in Zea mays, 168 h): 100%; mortality at 100 g/ha [4]: 100%
– | Cn1nc(C2(F)CC2)c(C(F)F)c1-n1cc(-c2ccc(Cl)c(C(=O)NC3CC3)c2)cn1 [Example I-3] | 2.81 | –
– | Cn1nc(C2(F)CC2)c([N+](=O)[O-])c1-n1cc(-c2ccc(Cl)c(C(=O)NC3(C#N)CC3)c2)cn1 [Example I-4] | 2.69 | efficacy (infertile eggs) [5]: 100%; mortality [6]: 100%; mortality [7]: 100%
– | Cn1nc(C2(F)CC2)c([N+](=O)[O-])c1-n1cc(-c2ccc(Cl)c(C(=O)NC3CC3)c2)cn1 [Example I-5] | 2.70 | –
– | Cn1nc(C2(Br)CC2)c([N+](=O)[O-])c1-n1cc(-c2ccc(Cl)c(C(=O)NC3CC3)c2)cn1 [Example I-6] | 2.98 | –
– | Cn1nc(C2(Cl)CC2)c(C(F)F)c1-n1cc(-c2ccc(Cl)c(C(=O)NC3(C#N)CC3)c2)cn1 [Example I-7] | 2.96 | mortality [8]: 90%; mortality [3]: 100%
– | Cn1nc(C2(Cl)CC2)c(C(F)F)c1-n1cc(-c2ccc(Cl)c(C(=O)NC3CC3)c2)cn1 [Example I-8] | 3.05 | mortality [3]: 100%
– | Cn1nc(C2(Cl)CC2)c(C(F)F)c1-n1cc(-c2cnc(Cl)c(C(=O)NC3(C#N)CC3)c2)cn1 [Example I-9] | 2.63 | –
– | Cn1nc(C2(Cl)CC2)c(C(F)F)c1-n1cc(-c2cnc(Cl)c(C(=O)NC3CC3)c2)cn1 [Example I-10] | 2.60 | –
– | Cn1nc(C2(F)CC2)c(C(F)F)c1-n1cc(-c2cnc(Cl)c(C(=O)NC3(C#N)CC3)c2)cn1 [Example I-11] | 2.44 | –
– | Cn1nc(C2(F)CC2)c(C(F)F)c1-n1cc(-c2cnc(Cl)c(C(=O)NC3CC3)c2)cn1 [Example I-12] | 2.42 | –

Source: patent publication US20170217899A1, “NOVEL HALOGEN-SUBSTITUTED COMPOUNDS” (BAYER CROPSCIENCE AKTIENGESELLSCHAFT, priority 2014, published 2017)
